Values of other authors as cited in patent EP1358311B1, “CLEANING COMPOSITIONS” (Unilever N.V., priority 2001, dated 2002).

Conditions: for Water Solubility (g/100g): at 20°C, other common materials, listed by contrast

Water Solubility (grams/100 grams water) (saturated solution in 100 grams of deionised water at 20°C, highly water-soluble materials)	Structure (SMILES)	Water Solubility (g/100g)
–	O=BO[O-].[Na+] [Sodium perborate anhydrous]	3.7
–	O=P(O)(O)OP(=O)(O)OP(=O)(O)O [Sodium tripolyphosphate anhydrous]	15
>100	NC(N)=O [Urea]	–
